Experimental data published in patent publication US9133187B2, “Serine/threonine kinase inhibitors” (ARRAY BIOPHARMA INC., priority 2011, dated 2015).

Experiments:
[1] = tested on: PMA-stimulated P90RSK(Ser380) phosphorylation in HepG2 cells; experiment: Cellular P90RSK(Ser380) Phosphorylation Assay; assay type: cell-based; conditions: Homo sapiens, 1.5 h compound incubation, PMA stimulation, pP90RSK(Ser380) normalized to GAPDH, read-out: Cell Assay IC50
Description: Inhibition of PMA-stimulated P90RSK(Ser380) phosphorylation was determined by the following in vitro cellular mechanistic assay, which comprises incubating cells with a compound for 1.5 hours and quantifying fluorescent pP90RSK(Ser380) signal on fixed cells and normalizing to GAPDH signal.
Materials and Methods: HepG2 cells were obtained from ATCC and grown in DMEM supplemented with 10% fetal bovine serum. Cells were plated in 96-well plates at 35,000 cells/well and allowed to attach overnight at 37° C./5% CO2. Diluted compounds were then added at a final concentration of 0.5% DMSO. After 1.5 hour compound incubation, cells were stimulated with the addition of PMA (phorbol 12-myristate 13-acetate) at a final concentration of 100 ng/mL; the PMA stimulation was a 30-minute incubation at 37° C./5% CO2. After the 30-minute PMA stimulation, cells were washed with PBS and fixed in 3.7% formaldehyde in PBS at room temperature for 15-20 minutes. This was followed by another wash in PBS and then permeabilization in 100% MeOH at room temperature for 10-15 minutes. Following the permeabilization incubation, cells were washed in PBS/0.05% Tween-20, followed by a block in Odyssey blocking buffer (LI-COR Biosciences) for at least 1 hour. Antibodies to phosphorylated P90RSK(Ser380) (Cell Signaling #9335, rabbit monoclonal) and GAPDH (Fitzgerald 10R-G109a, mouse monoclonal) were added to the cells and incubated overnight at 4° C. pP90RSK(Ser380) antibody was used at a 1:250 dilution; GAPDH was used at a 1:10,000 dilution. After washing with PBS/0.05% Tween-20, the cells were incubated with fluorescently-labeled secondary antibodies (Anti-rabbit-Alexa Flour680, Invitrogen Cat#A21109; Anti-mouse-IRDye800CW, Rockland Inc. Cat#610-131-121) for 1 hour. Both secondary antibodies were used at a 1:1000 dilution. Cells were then washed and analyzed for fluorescence at both wavelengths using the Odyssey Infrared Imaging System (LI-COR Biosciences). Phosphorylated P90RSK(Ser380) signal was normalized to GAPDH signal. Representative date is in TABLE III (infra).

[2] = target: human ERK-2 (Mitogen Activated Kinase 1) (Homo sapiens (Human), UniProt P28482); experiment: ERK-2 Enzymatic Assay; assay type: biochemical; conditions: 5 nM ERK-2, 25 μM ATP, Omnia peptide S/T17; read-out: ERK Inhibition IC50
Description: Compounds were tested in an enzymatic assay using human ERK-2 (Mitogen Activated Kinase 1), recombinantly expressed as an n-terminal 6-His fusion protein in E. coli and corresponding to aa 8-360. The substrate used was the fluorescent Omnia peptide S/T17 (Invitrogen of Carlsbad, Calif.; Cat. KNZ1171C). Test compounds were diluted in DMSO in 3-fold serial dilutions at 100× final concentrations. […] The assay was run at ambient temperature in a white 384-well polypropylene plate (Nunc, Inc of Naperville, Ill.; Cat. 267462) collecting data every 50 seconds for approximately 30 minutes on an Envision plate reader (PerkinElmer, Inc. of Waltham, Mass.); Excitation 340 nm/Emission 495 nm. The data collected from each well was fit to a straight line and the resulting rates were used to calculate percent of control. Percent of control was plotted against compound concentration and IC50 values were determined using a four-parameter fit.

Chain of human ERK-2 (Mitogen Activated Kinase 1) (P28482 8-360): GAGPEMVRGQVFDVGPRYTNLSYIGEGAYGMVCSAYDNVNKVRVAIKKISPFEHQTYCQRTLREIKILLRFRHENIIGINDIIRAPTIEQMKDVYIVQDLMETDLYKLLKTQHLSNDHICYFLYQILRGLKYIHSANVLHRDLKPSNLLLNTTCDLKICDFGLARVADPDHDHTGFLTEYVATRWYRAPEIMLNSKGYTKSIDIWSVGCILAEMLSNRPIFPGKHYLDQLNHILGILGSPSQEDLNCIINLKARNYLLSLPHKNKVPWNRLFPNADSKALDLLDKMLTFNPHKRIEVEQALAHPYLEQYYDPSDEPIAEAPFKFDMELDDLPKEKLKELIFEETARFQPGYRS

Row | Compound | IC50 [1] | IC50 [2]
1 | O=C(N[C@@H](c1ccc(Cl)c(F)c1)[C@@H]1CNCCO1)N1CCc2cnc(NC3CCOCC3)nc2C1 (mixture of isomers) [Compound I-144, N—((R)-(4-chloro-3-fluorophenyl)((R)-morpholin-2-yl)methyl)-2-(tetrahydro-2H-pyran-4-ylamino)-5,6-dihydropyrido[3,4-d]pyrimidine-7(8H)-carboxamide and N—((S)-(4-chloro-3-fluorophenyl)((S)-morpholin-2-yl)methyl)-2-(tetrahydro-2H-pyran-4-ylamino)-5,6-dihydropyrido[3,4-d]pyrimidine-7(8H)-carboxamide mixture] | 91.3 nM | 2.3 nM
2 | C[C@@H](CO)Nc1ncc2c(n1)CN(C(=O)NC1CNCC1c1ccc(C(F)(F)F)cc1)CC2 (mixture of isomers) [II-171, 2-(2-Hydroxy-1-methyl-ethylamino)-5,8-dihydro-6H-pyrido[3,4-d]pyrimidine-7-carboxylic acid [4-(4-trifluoromethyl-phenyl)-pyrrolidin-3-yl]-amide] | 10000 nM | 0.7 nM
3 | O=C(NC(c1ccc(Cl)c(F)c1)c1nnco1)N1CCc2cnc(NC3CCOCC3)nc2C1 (stereo in doubt) [II-359, 2-(Tetrahydro-pyran-4-ylamino)-5,8-dihydro-6H-pyrido[3,4-d]pyrimidine-7-carboxylic acid [(R)-(4-chloro-3-fluoro-phenyl)-[1,3,4]oxadiazol-2-yl-methyl]-amide] | 30 nM | 2.4 nM
4 | Cn1ccc(C(NC(=O)N2CCc3cnc(NC4CCOCC4)nc3C2)c2ccc(Cl)c(F)c2)n1 (centres unmarked) [Compound I-3, N-((4-chloro-3-fluorophenyl)(1-methyl-1H-pyrazol-3-yl)methyl)-2-(tetrahydro-2H-pyran-4-ylamino)-5,6-dihydropyrido[3,4-d]pyrimidine-7(8H)-carboxamide] | 101 nM | 3.8 nM
5 | Cn1cc(C(NC(=O)N2CCc3cnc(NC4CCOCC4)nc3C2)c2ccc(Cl)c(F)c2)cn1 (centres unmarked) [Compound I-5, N-((4-chloro-3-fluorophenyl)(1-methyl-1H-pyrazol-4-yl)methyl)-2-(tetrahydro-2H-pyran-4-ylamino)-5,6-dihydropyrido[3,4-d]pyrimidine-7(8H)-carboxamide] | 47.3 nM | 1.4 nM
6 | O=C(NC(c1cn[nH]c1)c1ccc(Cl)c(F)c1)N1CCc2cnc(NC3CCOCC3)nc2C1 (centres unmarked) [Compound I-7, N-((4-chloro-3-fluorophenyl)(1H-pyrazol-4-yl)methyl)-2-(tetrahydro-2H-pyran-4-ylamino)-5,6-dihydropyrido[3,4-d]pyrimidine-7(8H)-carboxamide] | 43.5 nM | 1.5 nM
7 | O=C(NC(c1ccc(Cl)c(F)c1)c1nnco1)N1CCc2cnc(NC3CCOCC3)nc2C1 (centres unmarked) [Compound I-9, N-((4-chloro-3-fluorophenyl)(1,3,4-oxadiazol-2-yl)methyl)-2-(tetrahydro-2H-pyran-4-ylamino)-5,6-dihydropyrido[3,4-d]pyrimidine-7(8H)-carboxamide] | 71.7 nM | 2.4 nM
8 | O=C(N[C@@H](c1ccc(Cl)c(F)c1)c1ccno1)N1CCc2cnc(NC3CCOCC3)nc2C1 [Compound I-12, (S)—N-((4-chloro-3-fluorophenyl)(isoxazol-5-yl)methyl)-2-(tetrahydro-2H-pyran-4-ylamino)-5,6-dihydropyrido[3,4-d]pyrimidine-7(8H)-carboxamide] | 235 nM | 4 nM
9 | CNC[C@@H](CC(=O)N1CCc2cnc(NC(C)C)nc2C1)c1ccc(Cl)c(F)c1 [Compound I-17, (S)-3-(4-Chloro-3-fluoro-phenyl)-1-(2-isopropylamino-5,8-dihydro-6H-pyrido[3,4-d]pyrimidin-7-yl)-4-methylamino-butan-1-one] | 281 nM | 3.2 nM
10 | C[C@@H](CO)Nc1ncc2c(n1)CN(C(=O)N[C@H](C)c1ccc(Cl)c(F)c1)CC2 [Compound I-21, N—((R)-1-(4-chloro-3-fluorophenyl)ethyl)-2-((S)-1-hydroxypropan-2-ylamino)-5,6-dihydropyrido[3,4-d]pyrimidine-7(8H)-carboxamide] | 55.2 nM | 1.6 nM
11 | C[C@@H](CO)Nc1ncc2c(n1)CN(C(=O)N[C@@H](c1ccc(Cl)c(Cl)c1)C(F)(F)F)CC2 [Compound I-23, N—((S)-1-(3,4-dichlorophenyl)-2,2,2-trifluoroethyl)-2-((S)-1-hydroxypropan-2-ylamino)-5,6-dihydropyrido[3,4-d]pyrimidine-7(8H)-carboxamide] | 493 nM | 3.2 nM
12 | CCOc1cc(Nc2ncc3c(n2)CN(C(=O)N[C@H](C)c2ccc(Cl)c(Cl)c2)CC3)ccn1 [Compound I-35, (R)—N-(1-(3,4-dichlorophenyl)ethyl)-2-(2-ethoxypyridin-4-ylamino)-5,6-dihydropyrido[3,4-d]pyrimidine-7(8H)-carboxamide] | 91.3 nM | 5.6 nM
13 | CC[C@@H](NC(=O)N1CCc2cnc(N[C@H]3CC[C@H](O)C3)nc2C1)c1ccc(C(F)(F)F)c(F)c1 [Compound I-37, N—((R)-1-(3-fluoro-4-(trifluoromethyl)phenyl)propyl)-2-((1S,3S)-3-hydroxycyclopentylamino)-5,6-dihydropyrido[3,4-d]pyrimidine-7(8H)-carboxamide] | 93 nM | 4.8 nM
14 | C[C@@H](NC(=O)N1Cc2nc(NC3CCOCC3)ncc2C(F)(F)C1)c1ccc(Cl)c(Cl)c1 [Compound I-50, (R)—N-(1-(3,4-dichlorophenyl)ethyl)-5,5-difluoro-2-(tetrahydro-2H-pyran-4-ylamino)-5,6-dihydropyrido[3,4-d]pyrimidine-7(8H)-carboxamide] | 28.3 nM | 1.6 nM
15 | O=C(N1CCc2cnc(NC3CCOCC3)nc2C1)N1CCCC1c1nccs1 (centres unmarked) [Compound I-139, (2-(tetrahydro-2H-pyran-4-ylamino)-5,6-dihydropyrido[3,4-d]pyrimidin-7(8H)-yl)(2-(thiazol-2-yl)pyrrolidin-1-yl)methanone] | – | 264 nM
16 | O=C(N1CCc2cnc(NC3CCOCC3)nc2C1)N1CCNCC1c1ccccc1 (centres unmarked) [Compound I-141, (2-Phenylpiperazin-1-yl)(2-(tetrahydro-2H-pyran-4-ylamino)-5,6-dihydropyrido[3,4-d]pyrimidin-7(8H)-yl)methanone] | – | 108 nM
17 | O=C(N[C@H](CO)c1ccc(F)c(Cl)c1)N1CCc2cnc(N[C@H](CO)Cc3ccccc3)nc2C1 [II-17, 2-((S)-1-Hydroxymethyl-2-phenyl-ethylamino)-5,8-dihydro-6H-pyrido[3,4-d]pyrimidine-7-carboxylic acid [(S)-1-(3-chloro-4-fluoro-phenyl)-2-hydroxy-ethyl]-amide] | 1100 nM | –
18 | CC(C)OC[C@@H](NC(=O)N1CCc2cnc(N[C@H]3CC[C@H](O)C3)nc2C1)c1ccc(F)c(Cl)c1 [II-95, 2-((1S,3S)-3-Hydroxy-cyclopentylamino)-5,8-dihydro-6H-pyrido[3,4-d]pyrimidine-7-carboxylic acid [(S)-1-(3-chloro-4-fluoro-phenyl)-2-isopropoxy-ethyl]-amide] | 551 nM | –
19 | CC(C)Nc1ncc2c(n1)CN(C(=O)N[C@@H](c1ccc(C(F)(F)F)c(F)c1)c1cccc(=O)[nH]1)CC2 [II-99, 2-Isopropylamino-5,8-dihydro-6H-pyrido[3,4-d]pyrimidine-7-carboxylic acid [(S)-(3-fluoro-4-trifluoromethyl-phenyl)-(6-oxo-1,6-dihydro-pyridin-2-yl)-methyl]-amide] | 5600 nM | –
20 | CC(C)Nc1ncc2c(n1)CN(C(=O)NC[C@H](c1ccc(C(F)(F)F)c(F)c1)N1CCCC1)CC2 [II-102, 2-Isopropylamino-5,8-dihydro-6H-pyrido[3,4-d]pyrimidine-7-carboxylic acid [(S)-2-(3-fluoro-4-trifluoromethyl-phenyl)-2-pyrrolidin-1-yl-ethyl]-amide] | – | 409 nM
21 | CC1CC(Nc2ncc3c(n2)CN(C(=O)N[C@H](CO)c2ccc(Cl)c(F)c2)CC3)CCO1 (some centres unmarked) [II-366] | 91 nM | –
